Molecules are shown by their SMILES. “Also recorded” adds a separate entry of the source. Bounds are passed on as bounds.

Holding throughout (assay type): cell-based
For one experiment, the system named is RS4;11 cells. The experiment is described as follows: Thiazolyl blue cell proliferation assay in RS4;11 cells. Conditions: Homo sapiens, RS4;11 acute lymphoblastic leukemia cells, 48 hours, read-out: IC50 (nM) for inhibiting the proliferation of RS4;11 cells. Summed up:
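RS4;11 cells, 3×10^4 cells/well in serum-containing RPMI-1640, treated 48 h with 7 concentrations (top 1000 nM or 100 nM, 10-fold serial dilutions). MTT added for 3 h at 37 °C, solubilised 4-6 h with SDS/isopropanol/HCl, absorbance read at 490 nm. IC50 from growth-inhibition curves; triplicates, at least three repeats.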

The subject of the next experiment is MV4;11 cells. The experiment is described as follows: Thiazolyl blue cell proliferation assay in MV4;11 cells. Conditions: Homo sapiens, MV4;11 myeloid monocytic leukemia cells, 48 hours, read-out: IC50 (nM) for inhibiting the proliferation of MV4;11 cells. Summed up:
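MV4;11 cells were seeded at 2×10^4 cells/well in serum-containing IMDM and treated with compound dilution series for 48 h. Viability was read by MTT at 490 nm after SDS/isopropanol/HCl solubilisation. IC50 values came from growth-inhibition curves, with 3 replicates and at least three repeats.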

Another experiment deals with Molt-4 cells. Kind of experiment: Thiazolyl blue cell proliferation assay in Molt-4 cells. The conditions noted are these: Homo sapiens, Molt-4 acute lymphocytic leukemia cells, 72 hours, read-out: IC50 (nM) for inhibiting the proliferation of Molt-4 cells. In outline:
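BCL-XL-dependent Molt-4 cells at 2×10^4/well in serum-containing RPMI 1640 were exposed to compound concentration gradients for 72 h. Thiazolyl blue (MTT) was added for 3 h at 37° C, solubilised in SDS/isopropanol/HCl, and read at 490 nm. IC50 comes from growth-inhibition curves, triplicate, repeated ≥3 times.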

For experiment [1], the system named is Hedgehog (Hh) signaling pathway. Kind of experiment: Dual-luciferase reporter assay of Hedgehog activity in Light II cells. The conditions noted are these: SAG stimulation, 36 h, dual-luciferase assay reporter kit, read-out: IC50 (nM) in Light II cells (inhibiting Hedgehog activity). How it is done: Determination of the IC50 Values of Compounds Inhibiting Hedgehog Activity—Dual-Luciferase Reporter Assay:
Light II cells were NIH3T3 cell lines that stably express the Gli-luciferase and TK-renilla reporters. They were cultured with DMEM medium containing 10% (v/v) fetal bovine serum (FBS), 0.4 mg/ml G418, 0.15 mg/ml bleomycin (Zeocin), and penicillin/streptomycin at 37° C. in an incubator with 5% CO2. Light II cells in the logarithmic growth phase were seeded at a density of 2.5×10^4 cells/well in a 96-well plate. After 24h incubation, the cells were subjected to treatment with SAG with or without different concentrations of the compounds of the present disclosure for 36 h. After that, the Hedgehog activity was measured using the dual fluorescence reporter kit according to its instructions. The experiment had 3 replicates per group and was repeated at least three times.
Background: Reporter assays use an easily measured gene product as a stand-in for the process of interest.

The target in another experiment is T1, BCL-XL protein (Homo sapiens, UniProt Q07817).
T1 construct: endogenous in cells; host or cells: Molt-4 (human acute lymphocytic leukemia cells)
T1 sequence (Q07817 whole entry): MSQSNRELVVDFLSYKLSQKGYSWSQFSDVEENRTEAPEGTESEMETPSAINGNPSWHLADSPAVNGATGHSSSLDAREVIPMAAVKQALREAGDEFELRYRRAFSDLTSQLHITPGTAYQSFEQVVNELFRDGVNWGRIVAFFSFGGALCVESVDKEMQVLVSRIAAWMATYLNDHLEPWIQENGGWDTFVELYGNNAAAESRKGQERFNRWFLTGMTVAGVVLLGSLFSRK
The experiment is described as follows: Western blot of BCL-XL protein in Molt-4 cells. Conditions: 100 nM, 8 h. On the procedure: The BCL-XL antibody used in the experiment was purchased from Abcam Company, and the Tubulin antibody was purchased from Proteintech Company.
Molt-4 cells in logarithmic growth phase seeded at a density of 3×10^6 cells/well in a 6-well plate were subjected to treatment with the compounds of the present disclosure, and DMSO was used as the vehicle control group. After […] of treatment, the cells were harvested and washed once in PBS. Cells were placed on ice and treated with IP protein lysis buffer containing PMSF protease inhibitors. After centrifugation at 4° C. (10 k rpm, 5 min), the supernatant was collected and mixed with 4×LDS protein loading buffer at a volume ratio of 3:1. The mixture of protein supernatant with loading buffer were further added with 5% β-mercaptoethanol. After incubation in a metal bath at 95° C. for 10 minutes, the protein samples was stored at −80° C. or cooled directly on ice for protein electrophoresis using 10% homemade polyacrylamide gel as separation gel. Electrophoresis tank and other related components were purchased from Bio-rad company. The electrophoresis conditions were voltage 80 V for 45 minutes, then switch to voltage 120V for further electrophoresis for 1 hour. Then protein in gel was transferred onto PVDF membrane at an isocurrent of 300 mA in an icy water bath for one hour. Afterwards, the membrane was blocked with 5% skim milk for 1 hour at room temperature. Subsequently the membrane was incubated with primary antibody at 4° C. overnight or at room temperature for 2 h, then washed with 1×TBST buffer (sodium chloride, 150 mM, Tris, 10 mM, Tween 20, 0.1%; PH 7.4) for three times, and then added with secondary antibody and incubated at room temperature for 45 min, washed with 1×TBST buffer (sodium chloride, 150 mM, Tris, 10 mM, Tween 20, 0.1%; PH 7.4) three times, and subjected to color development. The antibody dilution ratio was determined according to the antibody instructions.
Molt-4 cells were seeded into a 6-well plate at a density of 3×10^6 cells per well. The next day, the cells were treated with the compounds of the present disclosure at a concentration of 100 nM, and the control groups were treated with DMSO and DT2216, respectively. Protein were extracted after 8 hours treatment, and BCL-XL protein expression was assessed by the western blot.

Consider `CC1(C)CCC(CN2CCN(c3ccc(C(=O)NS(=O)(=O)c4ccc(NC[C@H]5CC[C@H](N6CCN(Cc7cc(Br)c8c(c7)C(=O)N(C7CCC(=O)NC7=O)C8)CC6)CC5)c([N+](=O)[O-])c4)c(Oc4cnc5[nH]ccc5c4)c3)CC2)=C(c2ccc(Cl)cc2)C1` (relative stereo) [BCL-03146, 2-((1H-pyrrolo[2,3-b]pyridin-5-yl)oxy)-N-((4-((((trans)-4-(4-((7-bromo-2-(2,6-dioxopiperidin-3-yl)-3-oxoisoindolin-5-yl)methyl)piperazin-1-yl)cyclohexyl)methyl)amino)-3-nitrophenyl)sulfonyl)-4-(4-((4′-chloro-5,5-dimethyl-3,4,5,6-tetrahydro-[1,1′-biphenyl]-2-yl)methyl)piperazin-1-yl)benzamide], for which the IC50 was under 20 nM with RS4;11 cells, under 20 nM with MV4;11 cells, under 10 nM in the experiment with Molt-4 cells and under 10 nM in experiment [1]. The “BCL-XL protein expression / degradation (western blot)” value on BCL-XL protein is on record as “significantly reduce the expression of BCL-XL protein; also recorded: significantly degraded BCL-XL protein”.

Turning to `CC1(C)CCC(CN2CCN(c3ccc(C(=O)NS(=O)(=O)c4ccc(NC[C@H]5CC[C@H](N6CCN(Cc7ccc8c(c7)CN(C7CCC(=O)NC7=O)C8=O)CC6)CC5)c([N+](=O)[O-])c4)c(Oc4cnc5[nH]ccc5c4)c3)CC2)=C(c2ccc(Cl)cc2)C1` (relative stereo) [BCL-03147, 2-((1H-pyrrolo[2,3-b]pyridin-5-yl)oxy)-4-(4-((4′-chloro-5,5-dimethyl-3,4,5,6-tetrahydro-[1,1′-biphenyl]-2-yl)methyl)piperazin-1-yl)-N-((4-((((trans)-4-(4-((2-(2,6-dioxopiperidin-3-yl)-1-oxoisoindolin-5-yl)methyl)piperazin-1-yl)cyclohexyl)methyl)amino)-3-nitrophenyl)sulfonyl)benzamide], the IC50 is under 20 nM in the experiment on RS4;11 cells, under 20 nM in the experiment with MV4;11 cells, under 10 nM in the experiment with Molt-4 cells and under 10 nM in experiment [1]. Further, the “BCL-XL protein expression / degradation (western blot)” value at BCL-XL protein is “significantly reduce the expression of BCL-XL protein; also recorded: significantly degraded BCL-XL protein”.

Consider `CC1(C)CCC(CN2CCN(c3ccc(C(=O)NS(=O)(=O)c4ccc(NC[C@H]5CC[C@@H](N6CCN(Cc7ccc8c(c7)CN(C7CCC(=O)NC7=O)C8=O)CC6)CC5)c([N+](=O)[O-])c4)c(Oc4cnc5[nH]ccc5c4)c3)CC2)=C(c2ccc(Cl)cc2)C1` (relative stereo) [BCL-03148, 2-((1H-pyrrolo[2,3-b]pyridin-5-yl)oxy)-4-(4-((4′-chloro-5,5-dimethyl-3,4,5,6-tetrahydro-[1,1′-biphenyl]-2-yl)methyl)piperazin-1-yl)-N-((4-((((cis)-4-(4-((2-(2,6-dioxopiperidin-3-yl)-1-oxoisoindolin-5-yl)methyl)piperazin-1-yl)cyclohexyl)methyl)amino)-3-nitrophenyl)sulfonyl)benzamide], for which the IC50 is under 20 nM in the experiment with RS4;11 cells, under 20 nM in the experiment on MV4;11 cells, under 10 nM with Molt-4 cells and under 10 nM in experiment [1]. In addition, the “BCL-XL protein expression / degradation (western blot)” value at BCL-XL protein is on record as “significantly reduce the expression of BCL-XL protein; also recorded: significantly degraded BCL-XL protein”.

As for `CC1(C)CCC(CN2CCN(c3ccc(C(=O)NS(=O)(=O)c4ccc(NC[C@H]5CC[C@@H](N6CCN(Cc7cc(Br)c8c(c7)C(=O)N(C7CCC(=O)NC7=O)C8)CC6)CC5)c([N+](=O)[O-])c4)c(Oc4cnc5[nH]ccc5c4)c3)CC2)=C(c2ccc(Cl)cc2)C1` (relative stereo) [BCL-03149, 2-((1H-pyrrolo[2,3-b]pyridin-5-yl)oxy)-N-((4-((((cis)-4-(4-((7-bromo-2-(2,6-dioxopiperidin-3-yl)-3-oxoisoindolin-5-yl)methyl)piperazin-1-yl)cyclohexyl)methyl)amino)-3-nitrophenyl)sulfonyl)-4-(4-((4′-chloro-5,5-dimethyl-3,4,5,6-tetrahydro-[1,1′-biphenyl]-2-yl)methyl)piperazin-1-yl)benzamide], the IC50 in the experiment on RS4;11 cells is under 20 nM; in the experiment on MV4;11 cells it was under 20 nM; with Molt-4 cells, under 10 nM; in experiment [1], under 10 nM. The “BCL-XL protein expression / degradation (western blot)” value at BCL-XL protein is given as “significantly reduce the expression of BCL-XL protein; also recorded: significantly degraded BCL-XL protein”.

Values taken from patent publication US20250154146A1, “PROTEIN DEGRADERS DEVELOPED ON BASIS OF BCL-2 FAMILY PROTEIN LIGAND COMPOUNDS AND USE THEREOF” (ShanghaiTech University, priority 2022, published 2025).
